Results published in BindingDB's records for doi:10.1074/jbc.M113.490441 (University of Calgary, 2013).

Biological target: T1, Histidine-binding periplasmic protein [1-238] (Escherichia coli (strain 55989 / EAEC), UniProt P0AEU0)
T1 construct: 1-238
T1 sequence (P0AEU0 whole entry): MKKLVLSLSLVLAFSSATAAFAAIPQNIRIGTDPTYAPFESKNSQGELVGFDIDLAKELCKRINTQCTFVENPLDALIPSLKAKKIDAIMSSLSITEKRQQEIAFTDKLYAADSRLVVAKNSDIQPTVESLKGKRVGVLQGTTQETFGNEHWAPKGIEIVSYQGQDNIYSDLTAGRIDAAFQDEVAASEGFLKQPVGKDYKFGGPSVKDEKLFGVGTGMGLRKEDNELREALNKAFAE
Test: Isothermal Titration Calorimetry (ITC)
Settings: pH 7; 30 °C
Experimental: All ITC experiments were performed using a Microcal VP-ITC microcalorimeter (GE Healthcare). All samples were prepared in a buffer containing 20 mM HEPES (pH 7.0) and 100 mM NaCl. The syringe was filled with 0.5 mM histidine that was injected into the ITC cell containing 20 μM protein (D1, D2, or HisJ) solution at 30 °C.

N[C@@H](Cc1c[nH]cn1)C(=O)O [L-2-Amino-3-(4-imidazolyl)propionic acid]
Kd: 114 nM
